Measured values from US7923452B2, “Fungicidal mixtures comprising boscalid and pyrimethanil” (BASF SE, priority 2005, dated 2011).

Test system: Puccinia recondita
Assay: Protective activity against Puccinia recondita on wheat (brown rust of wheat) (Puccrt P1)
Type: in vivo, Puccinia recondita on wheat seedlings cultivar "Kanzler"
Conditions: single active compound, protective spray 1 day before inoculation, efficacy in % of untreated control (Abbot), read-out: Observed activity (%)
Protocol: The active compounds, separately or jointly, were prepared as a stock solution comprising 25 mg of active compound which was made up to 10 ml using a mixture of acetone and/or dimethyl sulfoxide and the emulsifier Uniperol® EL (wetting agent having an emulsifying and dispersing action based on ethoxylated alkylphenols) in a ratio by volume of solvent/emulsifier of 99:1. The mixture was then made up to 100 ml with water. This stock solution was diluted with the solvent/emulsifier/water mixture described to give the concentration of active compound stated below.
The visually determined percentages of infected leaf areas were converted into efficacies in % of the untreated control:
The efficacy (E) is calculated as follows using Abbot's formula. W=(1−α/β)·100 α corresponds to the fungicidal infection of the treated plants in % and β corresponds to the fungicidal infection of the untreated (control) plants in %
At an efficacy of 0, the infection level of the treated plants corresponds to that of the untreated control plants; at an efficacy of 100, the treated plants are not infected.
The expected efficacies of active compound mixtures were determined using Colby's formula (S. R. Colby, “Calculating synergistic and antagonistic responses of herbicide combinations”, Weeds 15, 20-22 (1967)) and compared with the observed efficacies.
Colby's formula: E=x+y−x−y/100 • E expected efficacy, expressed in % of the untreated control, when using the mixture of the active compounds A and B at the concentrations a and b; • x efficacy, expressed in % of the untreated control, when using the active compound A at the concentration a; • y efficacy, expressed in % of the untreated control, when using the active compound B at the concentration b;
Leaves of potted wheat seedlings of the cultivar “Kanzler” were sprayed to runoff point with an aqueous suspension having the concentration of active compound stated below. […] The extent of the rust fungus development on the leaves was then determined visually.

SMILES | inhibition at 8 ppm (8 ppm) [%] | inhibition at 2 ppm (2 ppm) [%] | inhibition at 4 ppm (4 ppm) [%]
O=C(Nc1ccccc1-c1ccc(Cl)cc1)c1cccnc1Cl [Boscalid, boscalid] | 22 |  | 
Cc1cc(C)nc(Nc2ccccc2)n1 [Pyrimethanil, pyrimethanil] |  | 0 | 0
